Experimental data published in ChEMBL document CHEMBL1140614, “In silico and in vitro filters for the fast estimation of skin permeation and distribution of new chemical entities” (J Med Chem, 2007).

What was measured:
Zone of skin = conditions: human
physchem = conditions: octanol/water
[1] = PAMPA, 7 h
[2] = octanol/water

Compound | log Kp (Zone of skin) | logP (physchem) | other results
CCc1ccc(O)cc1 | -5.01 | 2.47 | 
Nc1cc([N+](=O)[O-])ccc1O [2-AMINO-4-NITROPHENOL] | -6.62 |  | 
O=C(O)CCCCc1ccccc1 [5-PHENYLVALERIC ACID] |  | 2.85 | 
Cc1cc(=O)n(-c2ccccc2)n1C [ANTIPYRINE] | -7.74 |  | 
CCNc1nc(Cl)nc(NC(C)C)n1 [ATRAZINE] | -5.56 |  | 
O=C(O)c1ccccc1 [BENZOIC ACID] | -5.08 |  | 
O=C(OCc1ccccc1)c1cccnc1 [BENZYL NICOTINATE] | -5.35 |  | 
C[C@H]1C[C@H]2[C@@H]3CCC4=CC(=O)C=C[C@]4(C)[C@@]3(F)[C@@H](O)C[C@]2(C)[C@@]1(O)C(=O)CO [BETAMETHASONE] |  | 2.01 | 
Oc1ccc2ccccc2c1 [BETANAPHTHOL] | -5.11 |  | log Pe [1]: -4.19
Cn1c(=O)c2c(ncn2C)n(C)c1=O [CAFFEINE] | -7.56 |  | log Pe [1]: -5.63
O=C(O)Cc1ccccc1Nc1c(Cl)cccc1Cl [DICLOFENAC] | -5.3 |  | 
C/C=C(/C(=C/C)c1ccc(O)cc1)c1ccc(O)cc1 [DIENESTROL] |  | 4.5 | 
CN[C@@H](C)[C@H](O)c1ccccc1 [EPHEDRINE] | -5.75 |  | 
CC(C(=O)O)c1ccc(-c2ccccc2)c(F)c1 (centres undefined) [FLURBIPROFEN] |  | 3.99 | 
COc1ccc2c(c1)c(CC(=O)O)c(C)n2C(=O)c1ccc(Cl)cc1 [INDOMETHACIN] | -5.39 |  | logP [2]: 4.27
c1ccc2cnccc2c1 [ISOQUINOLINE] | -5.33 |  | 
CC(C(=O)O)c1cccc(C(=O)c2ccccc2)c1 (centres undefined) [KETOPROFEN] | -4.7 |  | 

Compound | log Kp (Zone of skin) | logP (physchem) | other results
COC(=O)c1cccnc1 [METHYL NICOTINATE] | -6.04 | 0.87 | 
CN1CCC[C@H]1c1cccnc1 [NICOTINE] | -5.26 |  | log Pe [1]: -4.58
Cc1ccccc1O [ORTHOCRESOL] | -5.36 | 1.94 | 
O=[N+]([O-])c1ccc(O)cc1 [P-NITROPHENOL] | -5.81 |  | 
Oc1ccc(Cl)cc1 [PARACHLOROPHENOL] | -5 |  | 
CCC1(c2ccccc2)C(=O)NC(=O)NC1=O [PHENOBARBITAL] | -6.9 |  | 
Oc1ccccc1 [PHENOL] | -5.64 |  | log Pe [1]: -4.14
CN1C(C(=O)Nc2ccccn2)=C(O)c2ccccc2S1(=O)=O [PIROXICAM] | -6.02 |  | 
CC(=O)[C@H]1CC[C@H]2[C@@H]3CCC4=CC(=O)CC[C@]4(C)[C@H]3CC[C@]12C [PROGESTERONE] | -5.08 |  | log Pe [1]: -4.56
CC(C)NCC(O)COc1cccc2ccccc12 (centres undefined) [PROPRANOLOL] |  |  | log Pe [1]: -4.25
c1ccncc1 [PYRIDINE] |  |  | log Pe [1]: -4.35
O=C(O)c1ccccc1O [SALYCILIC ACID] |  |  | log Pe [1]: -4.16
C[C@]12CCC(=O)C=C1CC[C@@H]1[C@@H]2CC[C@@]2(C)[C@H]1CC[C@@]21CCC(=O)O1 [SPRIOLACTONE] |  | 2.26 | 
Nc1ccc(S(=O)(=O)NC(=O)c2ccccc2)cc1 [SULFABENZAMIDE] |  | 1.46 | 
NC(=O)NS(=O)(=O)c1ccc(N)cc1 [SULFACARBAMIDE] |  | -1.1 | 
Nc1ccc(S(=O)(=O)Nc2ncccn2)cc1 [SULFADIAZINE] |  | -0.12 | log Pe [1]: -6.2
Cc1ccc(C(C)C)c(O)c1 [THYMOL] | -4.83 |  | 
